From US20240299373A1, “IMPROVED USE OF TRADIPITANT IN MOTION SICKNESS” (Vanda Pharmaceuticals Inc., priority 2023, published 2024)
Marks after values point to notes of the source that are not given here.

Columns and labels:
[1] = target: T1, NK-1 receptor (Meriones unguiculatus, UniProt Q5DUB1); assay: NK-1 agonist (GR73632, icv)-induced foot-tapping behavior in gerbils; format: in vivo; details: gerbil, 1 mg/kg
T1 construct: centrally acting NK-1 receptor antagonist in vivo in the gerbil; from tissue; host or cells: brain of living Mongolian gerbils
Description: Male Mongolian gerbils (Harlan Sprague Dawley, Indianapolis, IN) weighing 26 to 40 grams are administered the selective neurokinin-1 receptor agonist GR73632 (3 pmol) via direct, vertical, free-hand intracerebroventricular (icy) injection to a depth of 4.5 mm below bregma with a cuffed 27-gauge needle attached to a 50 μl Hamilton syringe. Immediately after injection, animals are placed individually into isolated chambers with pressure-sensitive velocimeter platform floors (San Diego Instruments acoustic startle apparatus) that detect and quantify vibration. The San Diego Instruments “SR” DOS-based computer program is used on a PC to record the number of foot-taps over the following 6 to 10 minutes, beginning 30 seconds after the floor is lightly tapped. […] The total number and average intensity of events over the duration is determined. Total number of taps is analyzed with one-way ANOVA and post-hoc Dunnett's test using JMP statistical software.
A dose-response curve (with doses of 0.3, 1, 3 and 10 pmols, icy) is initially generated with the NK-1 agonist GR73632.
NK-1 antagonists are tested for their ability to attenuate GR73632-induced foot tapping. NK-1 antagonists are administered (po) via oral feeding tube at doses and time points specified in each experiment. […]
NK-1 antagonists are administered at multiple doses (at least 3; one dose per animal) and response to GR73632 is measured. […]

[2] = test system: apomorphine-induced emesis; assay: Emetic challenge study (apomorphine-induced emesis) in beagle dogs; format: in vivo, beagle dog; details: 3.0 mg/kg oral, apomorphine 0.1 mg/kg iv 2 hours later, five dogs; APO control 28
Description: Over the five (5) weeks of the study, each animal receives each of the treatments, but only one per week. The purpose of this study is to determine if tradipitant suppresses apomorphine-induced emesis.
The mid dose of tradipitant is the approximate half-log interval between the low and high doses.
All animals are dosed over a period of five (5) weeks, with each dog receiving one of five different treatments on each day of dosing.
All dogs are fasted overnight prior to each treatment day and then fed approximately one (1) hour after oral dosing (approximately one (1) hour prior to administration of apomorphine). Individual doses are adjusted weekly for changes in body weight.
The dose regimen consists of a 5×5 Latin square design, in which each subject receives 1 dose or dose combination per week (6 day washout) as shown in Table 3 below.

[3] = test system: vomiting due to motion sickness; details: crossover study; cited from earlier work

T1 sequence (Q5DUB1 whole entry): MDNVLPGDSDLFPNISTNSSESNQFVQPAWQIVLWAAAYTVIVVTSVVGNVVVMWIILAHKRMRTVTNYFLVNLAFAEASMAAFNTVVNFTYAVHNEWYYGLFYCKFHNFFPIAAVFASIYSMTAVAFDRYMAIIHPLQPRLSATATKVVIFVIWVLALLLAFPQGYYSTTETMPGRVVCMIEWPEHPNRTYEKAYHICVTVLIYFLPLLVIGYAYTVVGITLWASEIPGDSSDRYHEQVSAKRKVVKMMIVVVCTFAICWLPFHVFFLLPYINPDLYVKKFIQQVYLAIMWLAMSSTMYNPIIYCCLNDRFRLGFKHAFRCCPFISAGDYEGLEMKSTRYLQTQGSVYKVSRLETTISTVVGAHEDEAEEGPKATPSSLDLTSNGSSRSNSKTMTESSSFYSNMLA

time after administration up to which foot-tapping behavior is inhibited [1]	Structure (SMILES)	Total No. Emetic Episodes [2]	dogs in which occurrence of vomiting was reduced as compared to placebo [3]
up to 24 hours	C[C@@H](O[C@H]1OCCN(Cc2n[nH]c(=O)[nH]2)[C@H]1c1ccc(F)cc1)c1cc(C(F)(F)F)cc(C(F)(F)F)c1 [Aprepitant, reference compound]	1**	–
–	COc1ccc(C(C)(C)C)cc1CN[C@H]1C2CCN(CC2)[C@H]1C(c1ccccc1)c1ccccc1 [Maropitant]	–	over 75%
